Earlier results in patent US7659260B2, “Tamponade compositions and methods for retinal repair” (priority 2005, dated 2010).

Assays:
[1] = at 25° C.
[2] = reportedly; unless ingested in very large amounts

In the case of [2H]O[2H] [Heavy water, deuterium-containing heavy water (D2O)], the relative density [1] is given as 1.1044 and the toxicity [2] is given as “non-toxic, unless ingested in very large amounts”.
